Values quoted from earlier work as cited in US20090221604A1, “Thiazole Compounds and Their Use as PGD2 Antagonists” (priority 2005, published 2009).

Key:
[1] = system: allergic conjunctivitis model
[2] = system: guinea pig; conditions: after oral dosing
[3] = system: asthma model in the guinea pig

SMILES: CC1(C)[C@H]2C[C@H](C/C=C\CCCC(=O)O)[C@@H](NC(=O)c3csc4ccc(O)cc34)[C@@H]1C2 [Example S-5751]
- allergen-induced plasma exudation in the conjunctiva [1]: alleviated
- early (sneezing, mucosal plasma exudation, nasal blockage) and late (eosinophil infiltration) phase nasal responses [2]: inhibited
- antigen-induced eosinophil infiltration into the lung [3]: alleviated
